US7365055B2, “Derivatives of morphine-6-glucuronide, pharmaceutical compositions containing them, their preparation method and their uses” (BTG International Limited, priority 2003, dated 2008)
Read-outs that look alike come from different tables or passages of the source.

Assays:
opioid receptors = details: background statement; cited from earlier work
μ receptors = molecular target: T1, μ receptors (Rattus norvegicus, UniProt P33535); assay: affinity to the μ receptors, [3H]DAMGO binding, rat cerebral cortex membrane homogenates
T1 construct: homogenates of rat cerebral cortex membrane; from tissue; host or cells: rat cerebral cortex membrane homogenate
Procedure: (§1) The affinity of M6G and of morphine was compared to that of the M6G derivatives according to the invention for the opioid receptors μ (mu) and κ (kappa).
(§2) The non-specific binding was determined by means of the addition to the labelled ligands of naloxone 10 μM.
(§3) After incubation, the samples were filtered on glass fibres (GF/B, Packard) previously incubated with 0.3% polyethyleneimine and rinsed several times with 50 mM of cold Tris-HCl using a “96-sample cell harvester” (Unifilter, Packard). The filters were then dried and the radioactivity counted.

κ receptors = molecular target: T2, κ receptors (Cavia porcellus, UniProt P41144); assay: affinity to the κ receptors, [3H]U 69593 binding, guinea-pig cerebellum membrane homogenates; details: 0.7 nM [3H]U 69593, 80 minutes at 22° C.
T2 construct: homogenates of guinea-pig cerebellum membrane; from tissue; host or cells: guinea-pig cerebellum membrane homogenate
Procedure: as §1
Concentrations of M6G, morphine and the compound according to the invention of 10^−14 to 10^−6 M were used.
as §2, §3

mouse = assay: tail flick test (analgesic effect); assay type: in vivo; details: mice, intravenous route
[1] = Affinity to the K receptors (Ki)

T2 sequence (P41144 whole entry): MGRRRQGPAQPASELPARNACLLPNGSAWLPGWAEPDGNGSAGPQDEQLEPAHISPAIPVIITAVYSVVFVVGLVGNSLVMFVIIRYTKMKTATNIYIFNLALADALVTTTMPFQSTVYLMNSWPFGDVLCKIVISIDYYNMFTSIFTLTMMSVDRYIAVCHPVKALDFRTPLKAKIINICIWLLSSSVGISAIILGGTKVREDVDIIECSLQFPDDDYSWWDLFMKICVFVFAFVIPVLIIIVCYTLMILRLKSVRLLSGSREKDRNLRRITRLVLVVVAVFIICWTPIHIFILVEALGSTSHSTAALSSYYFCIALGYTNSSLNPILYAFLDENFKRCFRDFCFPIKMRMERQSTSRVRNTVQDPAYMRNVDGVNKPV
T1 sequence (P33535 whole entry): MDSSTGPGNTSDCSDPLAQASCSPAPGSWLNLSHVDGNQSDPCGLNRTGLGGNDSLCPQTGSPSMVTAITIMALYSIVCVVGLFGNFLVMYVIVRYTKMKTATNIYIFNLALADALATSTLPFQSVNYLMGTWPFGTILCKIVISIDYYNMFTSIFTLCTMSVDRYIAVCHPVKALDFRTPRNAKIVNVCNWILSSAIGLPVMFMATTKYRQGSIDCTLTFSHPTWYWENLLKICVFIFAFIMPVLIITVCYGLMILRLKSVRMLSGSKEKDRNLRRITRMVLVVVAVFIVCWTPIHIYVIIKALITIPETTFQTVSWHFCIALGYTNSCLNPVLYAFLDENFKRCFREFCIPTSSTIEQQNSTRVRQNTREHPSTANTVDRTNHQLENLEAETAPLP

Compound	Ki (μ receptors)	Ki (κ receptors; [1])	duration of the action (analgesic activity) (mouse)	further results
CN1CC[C@]23c4c5ccc(O[C@@H]6O[C@H](C(=O)O)[C@@H](O)[C@H](O)[C@H]6O)c4O[C@H]2[C@@H](O)C=C[C@H]3[C@H]1C5 [Example M3G, morphine-3-glucuronide]	–	–	–	affinity for the opioid receptors (opioid receptors): no affinity
CN1CCC23c4c5ccc(O)c4OC2C(OC2OC(C(=O)O)C(O)C(O)C2O)C=CC3C1C5 (stereo not drawn) [Example M6G, morphine-6-glucuronide]	13.6 nM	224 nM	approximately 100 minutes	ED50, the dose which induces 50% of the analgesic effect (mouse): 0.55 mg eq./kg; affinity for the opioid receptors (opioid receptors): high affinity
CCN(CC)C(=O)C(CS)NC(=O)C1OC(OC2C=CC3C4Cc5ccc(O)c6c5C3(CCN4C)C2O6)C(O)C(O)C1O (stereo not drawn) [Example M6G-Cys-DEA, M6G-Cys-DEA]	0.36 nM	1.9 nM	–	–
CCOC(=O)C(CS)NC(=O)C1OC(OC2C=CC3C4Cc5ccc(O)c6c5C3(CCN4C)C2O6)C(O)C(O)C1O (stereo not drawn) [Example M6G-Cys-OEt, M6G-Cys-OEt]	1.17 nM	11.2 nM	–	–
COC(=O)C(CS)NC(=O)C1OC(OC2C=CC3C4Cc5ccc(O)c6c5C3(CCN4C)C2O6)C(O)C(O)C1O (stereo not drawn) [Example M6G-Cys-OMe, M6G-Cys-OMe]	1.04 nM	14 nM	–	–
CN1CC[C@]23c4c5ccc(O)c4O[C@H]2[C@@H](O[C@@H]2O[C@H](C(=O)NCCSSCCNC(=O)[C@H]4O[C@@H](O[C@H]6C=CC7[C@H]8Cc9ccc(O)c%10c9[C@@]7(CCN8C)[C@H]6O%10)[C@H](O)[C@@H](O)[C@@H]4O)[C@@H](O)[C@H](O)[C@H]2O)C=CC3[C@H]1C5 (stereo partly drawn) [M6G-Cya-Cya-M6G]	0.38 nM	6.22 nM	360 min	–
CN1CC[C@]23c4c5ccc(O)c4O[C@H]2[C@@H](O[C@@H]2OC(C(=O)NCCS)[C@@H](O)C(O)C2O)C=CC3[C@H]1C5 (stereo partly drawn) [M6G-cysteamide]	2.35 nM	4.49 nM	–	–
CN1CC[C@]23c4c5ccc(O)c4O[C@H]2[C@@H](O)C=C[C@H]3[C@H]1C5 [Morphine]	–	–	approximately 100 minutes	ED50, the dose which induces 50% of the analgesic effect (mouse): 2.65 mg eq./kg
M6G-Cya-Cya-PEG20000 [M6G-Cya-Cya-PEG200000]	–	–	–	Ki (μ receptors; rat cerebral cortex membrane, 1 nM [3H]DAMGO, 60 minutes at 22° C., read-out: Affinity to the μ receptors (Ki)): 0.92 nM; Ki (κ receptors; read-out: Affinity to the K receptors (Ki)): 0.72 nM
